Laboratory results reported in patent US20230067015A1, “SYSTEMS AND METHODS FOR ANTIBACTERIAL SUSCEPTIBILITY TESTING USING DYNAMIC LASER SPECKLE IMAGING” (The Penn State Research Foundation, priority 2020, published 2023).
Converted amounts (≈) assume the structure as drawn. Like-named read-outs stand apart in the source and are kept apart here.

Assays:
E. coli K-12 [1] = test: Broth microdilution MIC (CLSI), confirmed by time-kill kinetics; type: cell-based, Escherichia coli; settings: E. coli K-12, gold standard overnight methods
Protocol: (§1) Escherichia coli (E. coli) strain K-12 was used as a model bacterial strain in all experiments with ampicillin, gentamicin, and ceftriaxone. Multi-drug resistant (MDR) E. coli strain PS00278A (porcine isolate) was tested with ampicillin and gentamicin to contrast with the susceptible model bacterial strain. Staphylococcus aureus (S. aureus) strain PS00975A (human clinical isolate) was used with ampicillin to evaluate the methods' performance on a Gram-positive microorganism. Cultures were stored as a frozen stocks at −80° C. and resuscitated every 14 days to maintain a fresh inoculum. The culture was resuscitated by streaking onto Muller Hinton Agar (MHA) and was then incubated at 37° C. 20+/−2 h. A single colony from the MHA agar was re-streaked on a fresh MHA plate and incubated at 37° C. 20+/−2 h. A single colony from the MHA sub-streak plate was inoculated into 10 mL Muller Hinton Broth (MHB) and incubated at 37° C., shaking at 210 rpm, for 20+/−2 h. The overnight culture was diluted in MHB based on the OD600 to obtain 5×10^5 CFU/mL using a BioPhotometer D30 (Eppendorf, Hauppauge, N.Y.). An OD600 of 1 was considered to be equal to 8×10^8 CFU/mL, based on an E. coli OD600-CFU/ml standard curve.
(§2) The 5×10^5 CFU/mL culture was used for broth microdilution and speckle imaging. […] The CLSI guideline M100 ED30:2020 was used to define clinical resistance based on determined MICs. […] MIC was determined by visually inspecting wells for turbidity resulting from culture growth.
Broth macrodilution was used to determine the time-kill kinetics of all strains, Culture in concentration of 5×10^5 CFU/mL was first grown for 1 hour at 37° C. in a shaking condition (210 rpm) and was then exposed to antibiotic concentrations of 0×MIC (control), 1×MIC, and 2×MIC that were previously determined via broth microdilution. Viable cells were quantified at times 0, 1, 2, 3, 5, 8, 16, and 24 hours by spiral plating (easySpiral, Interscience) 10-fold dilutions onto MHB agar. Inoculated plates were incubated at 37° C. for 16-20 hours and counted to determine the CFU/mL at each time point. […]

MDR E. coli PS00278A [2] = test: Broth microdilution MIC (CLSI); type: cell-based, Escherichia coli
Protocol: as §1, with “An OD600 of 1 was considered to be equal to 8×10^8 CFU/mL, based on an E. coli OD600-CFU/ml standard curve.” left out
as §2

E. coli K-12 [3] = test: Average intensity of raw dynamic laser speckle images; type: cell-based; settings: Escherichia coli, K12; E. coli K-12, simple intensity measurement (false positive vs overnight MIC); read-out: MIC determined from speckle intensity data
Protocol: A helium-neon laser (wavelength: 632.8 nm, power: 0.8 mW, HNLS008L, Thorlabs Inc., USA) was used as an illumination source. The laser beam was slightly expanded by using a concave lens (focal length=−25.0 mm) before illuminating a cuvette (Fisherbrand, CAS#14-955-129) containing 3 mL of bacterial suspension. The resultant speckle pattern was captured by a CMOS camera (Zyla, ANDOR), interfaced to a computer. Note that other methods, such as an inverse telescope beam expander, can also be used to increase the incident laser beam size. Our choice of a diverging lens is due to its simplicity and compactness as well as the fact that an explicit physical model is not needed for the machine learning based analysis, which relaxes the requirement of a plane-wave incident beam as commonly used in dynamic light scattering. […]
The OD data and the average intensity values obtained from raw speckle patterns (examples shown in FIG. 2) are shown in FIG. 3A-B and FIG. 3C-D for ampicillin and gentamicin, respectively. […] While the OD values for different antibiotic concentrations are below the detection limit of the OD reading even after 120 min, the average speckle intensity values are distinguishable in 90 min. […]

E. coli K-12 [4] = test: DyRAST: ANN pixel-level prediction on DLSI data with voting; type: cell-based, Escherichia coli; settings: 2×MIC
Protocol: For DLSI-based AST, the culture grown as outlined above was adjusted to 5×10^5 CFU/mL and was further incubated at 37° C., 210 rpm for 1 h to reach the logarithmic growth phase before an antibiotic was added to the culture in concentrations equal to 0×MIC (control), 0.5×MIC, 1×MIC, and 2×MIC. Three mL of each culture were collected at each time point, ti (i=0, 1, . . . , 4) at 0, 30 min, 60 min, 90 min, and 120 min, respectively, and transferred into the cuvette used for DLSI in the imaging system described above. At each ti, a dynamic speckle patterns series (16 bits, 1000×2000 pixels, 50 frames per second) was collected. The exposure time for each frame was 1 msec (millisecond) and the full capture period was 10 sec at each time point, ti. All experiments were conducted in independent triplicates.
The raw images (1000×2000) were first resized (100×200) using the nearest neighbor method to reduce the computational cost. The camera has a pixel size of 6.5 μm, corresponding to a 6.5 mm×13 mm detection area. Fourier Transform (FT) was performed along the time axis of the measured data cube. […]
The experimental replicates are pooled, processed together, and then divided randomly into training, validation, and test groups. […] Binary classification for the “Inhibited” and “Non-Inhibited” bacteria groups was determined with the input from frequency domain for each pixel. […]

MDR E. coli PS00278A [5] = settings: CLSI guideline M100 ED30:2020, tested on MDR E. coli; cited from earlier work
[6] = Escherichia coli, K12, read-out: MIC

Q: With CC1(C)S[C@@H]2[C@H](NC(=O)[C@H](N)c3ccccc3)C(=O)N2[C@H]1C(=O)O [ampicillin, Ampicillin] as the molecule, how does the MIC (E. coli K-12 [1]; [6]) read?
A: 4 µg/mL (≈ 11.4 µM)

Q: What about the MIC (MDR E. coli PS00278A [2]; Escherichia coli, read-out: MIC) of the same molecule?
A: 2000 µg/mL (≈ 5720 µM)

Q: And the MIC (E. coli K-12 [3])?
A: 2 µg/mL (≈ 5.72 µM)

Q: And the “predicted percentage of classification as "Inhibited"” value (E. coli K-12 [4]; 30 min)?
A: ~50%

Q: What about the “predicted percentage of classification as "Inhibited" (votes)” value (E. coli K-12 [4]; 60 min) of the same molecule?
A: more than 80%

Q: And the “intermediate breakpoint concentration (clinical resistance diagnosis breakpoint)” value (MDR E. coli PS00278A [5])?
A: 16 µg/mL

Q: For CO/N=C(\C(=O)N[C@@H]1C(=O)N2C(C(=O)O)=C(CSc3nc(=O)c(=O)[nH]n3C)CS[C@H]12)c1csc(N)n1 [ceftriaxone], which MIC (E. coli K-12 [1]; [6]) is on record?
A: 0.0625 µg/mL (≈ 0.113 µM)

Q: With gentamicin as the molecule, how does the MIC (E. coli K-12 [1]) read?
A: 2 µg/mL

Q: What about the MIC (MDR E. coli PS00278A [2]) of the same molecule?
A: 128 µg/mL

Q: And the “intermediate breakpoint concentration (clinical resistance diagnosis breakpoint)” value (MDR E. coli PS00278A [5])?
A: 8 µg/mL
